From patent publication US10011609B2, “Heterocyclic compounds” (CADILA HEALTHCARE LIMITED, priority 2013, dated 2018)
Where a name gives a salt, the structure may show the parent alone.

The molecules below were run against T1, GPR40 (Homo sapiens, UniProt O14842) (assay: Promoter-luciferase assay to measure GPR40 activation (HEK293 cells stably transfected with GPR40 cDNA)). Settings: EC50 in Luciferase assay, HEK293 cells stably transfected with GPR40, 5xSRE-luciferase.
T1 construct: host or cells: HEK293 (ChemiBrite cell line)
T1 sequence (O14842 whole entry, species assumed): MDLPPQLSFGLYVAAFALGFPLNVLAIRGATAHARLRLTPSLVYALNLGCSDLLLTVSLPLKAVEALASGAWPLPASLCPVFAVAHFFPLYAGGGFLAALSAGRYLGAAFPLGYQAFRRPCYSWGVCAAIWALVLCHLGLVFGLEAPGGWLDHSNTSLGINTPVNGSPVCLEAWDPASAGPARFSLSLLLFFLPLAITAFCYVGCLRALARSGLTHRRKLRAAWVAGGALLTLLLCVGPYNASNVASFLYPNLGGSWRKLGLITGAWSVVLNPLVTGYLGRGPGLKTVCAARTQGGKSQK
Format: cell-based
Description: GPR40 activation was measured in HEK293 cells stably transfected with GPR40 cDNA (ChemiBrite cell lines from Millipore, US). These cells were transiently transfected with a pGL2 (Promega Inc.) plasmid having a 5×SRE sequence, cloned 5′ of a luciferase gene along with a β-galactosidase plasmid as normalizing control. Briefly, 35000 cells/well were seeded in a 96 well plates. After overnight incubation at 37° C., the cells were washed with PBS and transfected with the 5×-SRE-Luciferase plasmid and the β-galactosidase plasmid. 6 h post transfection, media was removed and replaced with fresh media with different concentration of drugs and incubated for 16 more hours. The cells were then lysed in 50 μL of Glo-Lysis buffer (Promega) for 30 min at room temperature. The cells were then centrifuged and lysates were collected. Luciferase activity was measured by adding 100 μL of luciferase substrate (Promega) in 20 μL of lysate and measuring the luminescence in luminometer. The […] activity was also measured by adding 20 μL of lysates with 20 μL of β-galactosidase buffer (Promega) and monitoring the absorbance at 415 nm. Luciferase values were divided by β-galactosidase values to normalize transfection efficiency (Table 2)
With `CC#C[C@@H](CC(=O)[O][Ca][O]C(=O)C[C@H](C#CC)c1ccc(OCc2cccc(CN3CCc4ccccc4C3)c2)cc1)c1ccc(OCc2cccc(CN3CCc4ccccc4C3)c2)cc1` [Compound 20, Calcium (S)-3-(4-((3-((3,4-dihydroisoquinolin-2(1H)-yl)methyl)benzyl)oxy)phenyl)hex-4-ynoate] the EC50 was 2.7 nM.
Work on `CC#C[C@@H](CC(=O)[O][Ca][O]C(=O)C[C@H](C#CC)c1ccc(OCc2cccc(CN3CCc4sc(Cl)cc4C3)c2)cc1)c1ccc(OCc2cccc(CN3CCc4sc(Cl)cc4C3)c2)cc1` [Compound 39, Calcium (S)-3-(4-((3-((2-chloro-6,7-dihydrothieno[3,2-c]pyridin-5(4H)-yl)methyl)benzyl)oxy)phenyl)hex-4-ynoate] yielded an EC50 of 1.7 nM.

Same assay, conditions: HEK293 cells stably transfected with GPR40, 5xSRE-luciferase; read-out: EC50 in Luciferase assay
`CC#C[C@@H](CC(=O)O)c1ccc(OCc2cccc(CN3CCc4c(ccn4C(=O)OC(C)(C)C)C3)c2)cc1` [Compound 8, (S)-3-(4-((3-((1-(tert-butoxycarbonyl)-6,7-dihydro-1H-pyrrolo[3,2-c]pyridin-5(4H)-yl)methyl)benzyl)oxy)phenyl)hex-4-ynoic acid] showed an EC50 of 11.8 nM.
`CC#C[C@@H](CC(=O)O)c1ccc(OCc2cccc(CN3Cc4ccccc4C3)c2)cc1` [Compound 12, (S)-3-(4-((3-(isoindolin-2-ylmethyl)benzyl)oxy)phenyl)hex-4-ynoic acid trifluoroacetic acid] gave an EC50 of 5.6 nM.
`CC#C[C@@H](CC(=O)O)c1ccc(OCc2cccc(CN3CCCc4ccccc43)c2)cc1` [Compound 13, (S)-3-(4-((3-((3,4-dihydroquinolin-1(2H)-yl)methyl)benzyl)oxy)phenyl)hex-4-ynoic acid] gave an EC50 of 0.8 nM.
Work on `CC#C[C@@H](CC(=O)O)c1ccc(OCc2cccc(CN3CCc4ccccc4C3)c2)cc1` [Compound 15, (S)-3-(4-((3-((3,4-dihydroisoquinolin-2(1H)-yl)methyl)benzyl)oxy)phenyl)hex-4-ynoic acid] yielded an EC50 of 4.6 nM.
`CC#C[C@@H](CC(=O)O)c1ccc(OCc2cccc(CN3CCc4sc(C(F)F)cc4C3)c2)cc1` [Compound 18, (S)-3-(4-((3-((2-(Difluoromethyl)-6,7-dihydrothieno[3,2-c]pyridin-5(4H)-yl)methyl)benzyl)oxy)phenyl)hex-4-ynoic acid] gave an EC50 of 8.8 nM.
Work on `CC#C[C@@H](CC(=O)O)c1ccc(OCc2cccc(CN3CCc4ncncc4C3)c2)cc1` [Compound 21, (S)-3-(4-((3-((7,8-Dihydropyrido[4,3-d]pyrimidin-6(5H)-yl)methyl)benzyl)oxy)phenyl)hex-4-ynoic acid] yielded an EC50 of 2.8 nM.
Work on `CC#C[C@@H](CC(=O)O)c1ccc(OCc2cccc(CN3CC4CC(C3)O4)c2)cc1` [Compound 23, (3S)-3-(4-((3-(6-Oxa-3-azabicyclo[3.1.1]heptan-3-ylmethyl)benzyl)oxy)phenyl)hex-4-ynoic acid] yielded an EC50 of 5.3 nM.
For `CC#C[C@@H](CC(=O)O)c1ccc(OCc2cccc(CN3CCc4ccccc43)c2)cc1` [Compound 24, (S)-3-(4-((3-(Indolin-1-ylmethyl)benzyl)oxy)phenyl)hex-4-ynoic acid], the EC50 was 0.7 nM.
`CC#C[C@@H](CC(=O)O)c1ccc(OCc2cccc(CN3CCc4oc(C5CC5)nc4C3)c2)cc1` [Compound 26, (S)-3-(4-((3-((2-Cyclopropyl-6,7-dihydrooxazolo[4,5-c]pyridin-5(4H)-yl)methyl)benzyl)oxy)phenyl)hex-4-ynoic acid] gave an EC50 of 4.1 nM.
In the case of `CC#C[C@@H](CC(=O)O)c1ccc(OCc2cccc(CN3CCCc4ccc(OC)cc43)c2)cc1` [Compound 30, 1-(3-((4-((S)-1-carboxypent-3-yn-2-yl)phenoxy)methyl)benzyl)-7-methoxy-1,2,3,4-tetrahydroquinolin-1-ium formate], the EC50 is reported as 4.5 nM.
Molecule `CC#C[C@@H](CC(=O)O)c1ccc(OCc2cccc(CN3CCc4nc(Cl)sc4C3)c2)cc1` [Compound 31, (S)-3-(4-((3-((2-Chloro-6,7-dihydrothiazolo[5,4-c]pyridin-5(4H)-yl)methyl)benzyl)oxy)phenyl)hex-4-ynoic acid] has an EC50 of 9.7 nM.
`CC#C[C@@H](CC(=O)O)c1ccc(OCc2cccc(CN3CCc4nc(Br)sc4C3)c2)cc1` [Compound 32, (S)-3-(4-((3-((2-Bromo-6,7-dihydrothiazolo[5,4-c]pyridin-5(4H)-yl)methyl)benzyl)oxy)phenyl)hex-4-ynoic acid] gave an EC50 of 4.8 nM.
Work on `CC#C[C@@H](CC(=O)O)c1ccc(OCc2cccc(CN3CCc4sc(C(=O)O)cc4C3)c2)cc1` [Compound 35, (S)-5-(3-((4-(1-carboxypent-3-yn-2-yl)phenoxy)methyl)benzyl)-4,5,6,7-tetrahydrothieno[3,2-c]pyridine-2-carboxylic acid] yielded an EC50 of 204 nM.
Molecule `CC#C[C@@H](CC(=O)O)c1ccc(OCc2cccc(CN3CCc4nc(N)sc4C3)c2)cc1` [Compound 38, (S)-3-(4-((3-((2-amino-6,7-dihydrothiazolo[5,4-c]pyridin-5(4H)-yl)methyl)benzyl)oxy)phenyl)hex-4-ynoic acid] has an EC50 of 17.8 nM.
Molecule `CC#C[C@@H](CC(=O)O)c1ccc(OCc2cccc(CN3CCc4sc(C(N)=O)cc4C3)c2)cc1` [Compound 40, (S)-3-(4-((3-((2-carbamoyl-6,7-dihydrothieno[3,2-c]pyridin-5(4H)-yl)methyl)benzyl)oxy)phenyl)hex-4-ynoic acid] has an EC50 of 8 nM.
Molecule `CC#C[C@@H](CC(=O)O)c1ccc(OCc2cccc(CN3CCc4sc(C#N)cc4C3)c2)cc1` [Compound 43, (S)-3-(4-((3-((2-cyano-6,7-dihydrothieno[3,2-c]pyridin-5(4H)-yl)methyl)benzyl)oxy)phenyl)hex-4-ynoic acid] has an EC50 of 7.3 nM.
In the case of `CC#C[C@@H](CC(=O)O)c1ccc(OCc2cccc(CN3CCc4sc(C=O)cc4C3)c2)cc1` [Compound 44, (S)-3-(4-((3-((2-formyl-6,7-dihydrothieno[3,2-c]pyridin-5(4H)-yl)methyl)benzyl)oxy)phenyl)hex-4-ynoic acid], the EC50 is reported as 4.8 nM.
`CC#C[C@@H](CC(=O)O)c1ccc(OCc2cccc(CN3CCc4sc(C(=O)NC)cc4C3)c2)cc1` [Compound 46, (S)-3-(4-((3-((2-(methylcarbamoyl)-6,7-dihydrothieno[3,2-c]pyridin-5(4H)-yl)methyl)benzyl)oxy)phenyl)hex-4-ynoic acid] was tested, and the EC50 was 6 nM.
`CC#C[C@@H](CC(=O)O)c1ccc(OCc2cccc(CN3CCc4sc(C(=O)N(C)C)cc4C3)c2)cc1` [Compound 47, (S)-3-(4-((3-((2-(dimethylcarbamoyl)-6,7-dihydrothieno[3,2-c]pyridin-5(4H)-yl)methyl)benzyl)oxy)phenyl)hex-4-ynoic acid] was tested, and the EC50 was 9 nM.
`CC#C[C@@H](CC(=O)O)c1ccc(OCc2cccc(CN3CCc4nc(OC)ncc4C3)c2)cc1` [Compound 50, (S)-3-(4-((3-((2-Methoxy-7,8-dihydropyrido[4,3-d]pyrimidin-6(5H)-yl)methyl)benzyl)oxy)phenyl)hex-4-ynoic acid] was tested, and the EC50 was 20.8 nM.
With `CC#C[C@@H](CC(=O)O)c1ccc(OCc2cccc(CN3CCCC3c3ccccc3)c2)cc1` (stereo partly drawn) [Compound 51, (3S)-3-(4-((3-((2-phenylpyrrolidin-1-yl)methyl)benzyl)oxy)phenyl)hex-4-ynoic acid] the EC50 was 3 nM.
`CC#C[C@H](CC(=O)O)c1ccc(OCc2cccc(CN3CCc4sc(C)cc4C3)c2)cc1` [Compound 55, (R)-3-(4-((3-((2-methyl-6,7-dihydrothieno[3,2-c]pyridin-5(4H)-yl)methyl)benzyl)oxy)phenyl)hex-4-ynoic acid] gave an EC50 of 56.5 nM.
`CC#CC(CC(=O)O)c1ccc(OCc2cccc(CN3CCc4sc(C)cc4C3)c2)cc1` (stereo not drawn) [Compound 58, 3-(4-((3-((2-Methyl-6,7-dihydrothieno[3,2-c]pyridin-5(4H)-yl)methyl)benzyl)oxy)phenyl)hex-4-ynoic acid] was tested, and the EC50 was 3.7 nM.
With `CC#C[C@@H](CC(=O)O)c1ccc(OCc2cccc(CN3CCc4sc(C(=O)NC5CC5)cc4C3)c2)cc1` [Compound 61, (S)-3-(4-((3-((2-(cyclopropylcarbamoyl)-6,7-dihydrothieno[3,2-c]pyridin-5(4H)-yl)methyl)benzyl)oxy)phenyl)hex-4-ynoic acid] the EC50 was 12.6 nM.
`CC#C[C@@H](CC(=O)O)c1ccc(OCc2cccc(CN3CCc4sc(C(=O)N5CCCC5)cc4C3)c2)cc1` [Compound 62, (S)-3-(4-((3-((2-(pyrrolidine-1-carbonyl)-6,7-dihydrothieno[3,2-c]pyridin-5(4H)-yl)methyl)benzyl)oxy)phenyl)hex-4-ynoic acid] was tested, and the EC50 was 3 nM.
Molecule `CC#C[C@@H](CC(=O)O)c1ccc(OCc2cccc(CN3CCc4sc(NC(C)=O)cc4C3)c2)cc1` [Compound 63, (S)-3-(4-((3-((2-Aacetamido-6,7-dihydrothieno[3,2-c]pyridin-5(4H)-yl)methyl)benzyl)oxy)phenyl)hex-4-ynoic acid] has an EC50 of 4.4 nM.
Work on `CC#C[C@@H](CC(=O)O)c1ccc(OCc2cccc(CN3CCc4sc([N+](=O)[O-])cc4C3)c2)cc1` [Compound 65, (S)-3-(4-((3-((2-Nitro-6,7-dihydrothieno[3,2-c]pyridin-5(4H)-yl)methyl)benzyl)oxy)phenyl)hex-4-ynoic acid] yielded an EC50 of 1.6 nM.
`CC#C[C@@H](CC(=O)O)c1ccc(OCc2cccc(CN3CCc4ncccc4C3)c2)cc1` [Compound 68, (S)-3-(4-((3-((7,8-Dihydro-1,6-naphthyridin-6(5H)-yl)methyl)benzyl)oxy)phenyl) hex-4-ynoic acid] showed an EC50 of 11.9 nM.
